Target: NTS1R (Homo sapiens, UniProt P30989)
Experiment: Radiochemical association and dissociation of [^3H]13 at membranes of CHO-hNTS1R cells
Type: binding
Details: GppNHp
Experimental: These experiments were performed in 96-well plates using the same procedure as for radiochemical binding experiments with intact suspended cells, but using cell membranes instead of whole cells. Binding of [^3H]13 to the NTS1R was saturable (Figure 6A). […] To note, in addition to GppNHp, saponin (100 μg/mL) was added to the samples to improve ligand permeabilization into vesicles that are likely to occur in membrane preparations. The association curve of [^3H]13 obtained from experiments with cell membranes (Figure 6B) was considerably different compared to the association curve observed for intact suspended cells (cf. Figure 4C). The biphasic character almost disappeared and with a kon value of 0.13 ± 0.05 nM^–1 min^–1 (calculated value ± propagated error) the association was slower compared to the initial phase found for experiments with intact cells (kon = 0.81 nM^–1 min^–1, cf. Table 3). […]
CHO-hNTS1R cells were grown on 175 cm^2 cell culture dishes (ref 83.3903, Sarstedt) to ca. 90% confluency. […] The protein concentration was determined according to the Bradford method[59] in transparent 96-well plates (Greiner Cellstar 655180, Greiner Bio-One, Frickenhausen, Germany) using bovine serum albumin as standard. […]

NTS1R, sequence (P30989 whole entry): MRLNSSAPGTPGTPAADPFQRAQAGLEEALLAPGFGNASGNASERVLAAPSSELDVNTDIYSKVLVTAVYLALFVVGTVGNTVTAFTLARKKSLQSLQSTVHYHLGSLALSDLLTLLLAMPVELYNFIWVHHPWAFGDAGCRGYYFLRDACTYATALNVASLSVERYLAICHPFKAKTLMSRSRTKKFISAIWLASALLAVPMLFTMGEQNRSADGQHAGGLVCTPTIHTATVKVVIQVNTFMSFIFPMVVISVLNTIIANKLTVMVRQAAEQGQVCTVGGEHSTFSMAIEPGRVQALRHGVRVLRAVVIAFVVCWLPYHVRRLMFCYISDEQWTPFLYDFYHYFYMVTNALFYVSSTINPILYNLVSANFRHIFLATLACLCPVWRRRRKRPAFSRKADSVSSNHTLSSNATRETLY

SMILES: CCC(=O)NCCCCNC(=O)NC(=N)NCCC[C@H](NC(=O)[C@@H]1CCCN1C(=O)[C@@H](NC(=O)CCc1cn(CCCNC(=O)c2ccc(-c3c4ccc(=[N+](C)C)cc-4oc4cc(N(C)C)ccc34)c(C(=O)[O-])c2)nn1)C1CCNCC1)C(=O)N[C@@H](CCCNC(=N)N)C(=O)N1CCC[C@H]1C(=O)N[C@@H](Cc1ccc(O)cc1)C(=O)N[C@H](C(=O)N[C@@H](CC(C)C)C(=O)O)[C@@H](C)CC [[^3H]13]
- koff (23 °C): 0.00617 s⁻¹
- kon (calculated value ± propagated error): 2.17e+06 M⁻¹ s⁻¹

— PMC11440508, “Dually Labeled Neurotensin NTS1R Ligands for Probing Radiochemical and Fluorescence-Based Binding Assays” (Journal of Medicinal Chemistry, 2024)
